# Entries after “also recorded” stand apart in the source; their conditions may differ.
# Experiments:
# [1] = test system: HeLa cells transfected with wild-type lamin A-CSIM, progerin-CSIM, progerin-SSIM or progerin-CSIL; assay: Nuclear blebbing and GFP localization in transiently transfected HeLa cells treated with FTI; type: cell-based; conditions: 48 hours
# Procedure: Transient Transfections. Approximately 25,000 cells were plated per chamber of 4-chamber slides (Lab-Tek, Nalge Nunc International, #154526). After twenty-four hours, HeLa and HEK-293 cell lines were transiently transfected with 0.8 μg of each construct using LIPOFECTAMINE®2000 transfection reagent (Invitrogen) under standard conditions.
# (§1) FTI Treatment. At the time of transient transfection, HeLa cells were treated with one dose of 0, 0.5, 1.0, or 2.0 μM of the selective FTI lonafarnib [Sarasar, SCH66336, (Schering-Plough)]. HEK-293 cells were treated with one dose of 0, 1, 2, 5, or 10 μM of the selective FTI L-744832 (Biomol). […] These FTIs have the same mechanism of action and can be used interchangeably to inhibit protein farnesylation in vitro. However, only lonafarnib is a clinical candidate. Normal and HGPS fibroblasts were treated with one daily dose of 0, 0.5, 1.0, or 2.0 μM of lonafarnib for 3 days.
# GFP Localization and Fluorescence Microscopy. Forty-eight hours following transient transfection, the HeLa and HEK-293 cells were visualized for GFP localization using an LSM510 confocal microscope (Zeiss). Following three-day treatment with lonafarnib, HGPS fibroblasts were washed two times with phosphate-buffered saline (PBS) (pH 7.2) and fixed for 10 minutes at room temperature with 1% paraformaldehyde in PBS. Following three washes with PBS, the cells were permeabilized for 5 minutes at room temperature with 0.5% Triton X-100 in PBS and blocked with 5% horse serum for 30 minutes at room temperature. Cells were then incubated for one hour at room temperature with the primary antibody diluted in blocking solution, a […] mouse anti-human lamin A/C at 1:10 (mAb3211, Chemicon). Three more washes with PBS were then followed by incubation with the secondary antibody, Alexa 488-conjugated donkey anti-mouse IgG (Molecular Probes), for 45 minutes and three additional PBS washes. Slides were then mounted with mounting medium containing DAPI (Vector Laboratories).
# Morphometric Analysis. To examine the overall percentage of blebbed cells in cells with different amounts and lengths of FTI treatment, 200 nuclei were classified as either blebbed, if they contained two or more lobulations, or not blebbed, as previously described (Goldman et al., Proc. Natl. Acad. Sci. USA 101:8963-8968, 2004). These classifications were done by three independent observers, all blinded to the specifics of the cells being examined, followed by averaging three independent data sets. Armitage's trend test (Armitage, Biometrics 11:375-386, 1955) was used to test for a dose-dependent response for each cell type.
# [2] = test system: HGPS fibroblast lines AG06917, AG11513, AG11498; assay: Nuclear blebbing of HGPS skin fibroblasts treated with FTI; type: cell-based, human; conditions: once daily 0, 0.5, 1.0, 2.0 μM for three days; p<0.0001
# Procedure: Cell Culture. Cell lines used were the normal human fibroblast line, AG06299, and HGPS fibroblast lines: AG06917, AG11513, and AG11498 (obtained from the NIA Aging Cell Culture Repository, Coriell Institute for Medical Research, Camden, N.J.). Fibroblasts were cultured in minimal essential medium (MEM; Invitrogen/Gibco) supplemented with 15% FBS (HiClone), 2 mM L-glutamine, penicillin (50 U/ml) and streptomycin ([…]). HeLa and HEK-293 cell lines were cultured in DMEM (Invitrogen/Gibco) supplemented with 10% fetal bovine serum and antibiotics.
# as §1
# GFP Localization and Fluorescence Microscopy. Forty-eight hours following transient transfection, the HeLa and HEK-293 cells were visualized for GFP localization using an LSM510 confocal microscope (Zeiss). […]
# [3] = test system: several human cancer cell lines; conditions: cited from earlier work
# [4] = test system: human brain, lung, prostate, pancreas, colon, and bladder tumor xenografts; conditions: nude mice; cited from earlier work
# protein farnesylation = conditions: Phase I clinical trial; cited from earlier work
# BCR/ABL = conditions: cell culture and mouse models; cited from earlier work
# [5] = Phase III trials, including trials involving children; cited from earlier work
smiles,measurement,setting,value
NC(=O)N1CCC(CC(=O)N2CCC([C@H]3c4ncc(Br)cc4CCc4cc(Cl)cc(Br)c43)CC2)CC1 [lonafarnib],"change of nuclear blebbing, wild-type lamin A-CSIM",[1]; 0 to 2.0 μM,unchanged; also recorded: does not change significantly
same,"percentage of nuclear blebbing, wild-type lamin A-CSIM",[1]; 0 to 2.0 μM,approximately 5%
same,"nuclear blebbing, progerin-CSIM",[1]; 2 μM single dose at transfection,approaching normal blebbing percentages; also recorded: almost totally abolishes
same,"localization of progerin, progerin-CSIM",[1]; 2 μM,relocalization of progerin into nucleoplasmic aggregates
same,"dose response of nuclear blebbing, progerin-CSIM","[1]; single dose 0, 0.5, 1.0, 2.0 μM, p<0.0001",dramatic dose-dependent response
same,"nuclear blebbing, progerin-CSIL",[1]; up to 2 μM,completely resistant; also recorded: resistant to FTI treatment; also recorded: resistant to inhibition of farnesylation
same,"phenotype, progerin-SSIM",[1]; up to 2 μM,no difference; also recorded: does not change significantly
same,nuclear blebbing in HGPS fibroblasts,[2],significant dose-dependent reduction; also recorded: reversion of the nuclear blebbing
same,proliferation of several human cancer cell lines,[3],inhibit proliferation
same,activity against human tumor xenografts,[4],active
same,protein farnesylation in vivo,protein farnesylation,inhibits
same,tolerability,protein farnesylation,generally well tolerated
same,anti-leukemic activity,BCR/ABL,demonstrated
same,tolerability,[5],well tolerated

# Source: patent publication US8257915B2, “Farnesyltransferase inhibitors for treatment of laminopathies, cellular aging and atherosclerosis” (Progeria Research Foundation, Inc., priority 2002, dated 2012)
